What all share (assay type): biochemical
One assay deals with T1, PKD1 (Homo sapiens, UniProt Q15139).
T1 sequence (Q15139 1-912): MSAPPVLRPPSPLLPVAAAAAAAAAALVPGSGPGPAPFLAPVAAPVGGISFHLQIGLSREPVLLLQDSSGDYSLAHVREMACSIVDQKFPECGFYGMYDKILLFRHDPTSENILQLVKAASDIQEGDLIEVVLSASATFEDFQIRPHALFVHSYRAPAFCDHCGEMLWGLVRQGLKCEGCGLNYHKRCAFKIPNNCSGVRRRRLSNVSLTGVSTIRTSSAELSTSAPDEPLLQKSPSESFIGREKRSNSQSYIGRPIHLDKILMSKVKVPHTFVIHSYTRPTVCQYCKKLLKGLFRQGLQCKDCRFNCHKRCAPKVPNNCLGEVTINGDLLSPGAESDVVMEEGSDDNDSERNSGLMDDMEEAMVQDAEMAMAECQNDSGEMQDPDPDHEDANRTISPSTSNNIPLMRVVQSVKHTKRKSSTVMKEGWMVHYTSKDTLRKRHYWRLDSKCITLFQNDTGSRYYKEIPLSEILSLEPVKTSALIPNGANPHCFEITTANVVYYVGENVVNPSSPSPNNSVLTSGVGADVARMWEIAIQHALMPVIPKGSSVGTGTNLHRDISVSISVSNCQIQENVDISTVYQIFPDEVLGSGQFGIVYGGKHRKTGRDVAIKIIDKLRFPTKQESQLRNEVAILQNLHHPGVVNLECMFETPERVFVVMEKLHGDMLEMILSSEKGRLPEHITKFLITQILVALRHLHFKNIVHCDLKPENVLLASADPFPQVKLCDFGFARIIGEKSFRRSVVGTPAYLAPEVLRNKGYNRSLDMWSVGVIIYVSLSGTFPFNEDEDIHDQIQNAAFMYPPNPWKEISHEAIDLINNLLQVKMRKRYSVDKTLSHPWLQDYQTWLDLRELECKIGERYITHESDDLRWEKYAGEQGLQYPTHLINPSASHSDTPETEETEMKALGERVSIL
As to the kind of experiment: Kinase profiling PKD1. The settings on record: 100 micromolar inhibitor concentration, 100 is no change; for remaining activity at 100 µM: read-out: residual kinase activity, PKD1. The text has this: (§1) Any value less that 25 is considered to be highly significant inhibition.

For a further assay, the target named is JAK2 (Homo sapiens, UniProt O60674). The assay is described as follows: Kinase profiling JAK2. The settings on record: 100 micromolar inhibitor concentration, 100 is no change; for remaining activity at 100 µM: read-out: residual kinase activity, JAK2.
Description: as §1

The next assay addresses JNK3 (Homo sapiens, UniProt P53779). As to the kind of experiment: Kinase profiling JNK3. The settings on record: 100 micromolar inhibitor concentration, 100 is no change; for remaining activity at 100 µM: read-out: residual kinase activity, JNK3.
Description: as §1

The target in a further assay is HIPK2 (Homo sapiens, UniProt Q9H2X6). As to the kind of experiment: Kinase profiling HIPK2. The settings on record: 100 micromolar inhibitor concentration, 100 is no change; for remaining activity at 100 µM: read-out: residual kinase activity, HIPK2.
Description: as §1

A further assay deals with STK33 (Homo sapiens, UniProt Q9BYT3). As to the kind of experiment: Kinase profiling STK33. The settings on record: 100 micromolar inhibitor concentration, 100 is no change; for remaining activity at 100 µM: read-out: residual kinase activity, STK33.
Description: as §1

Another assay concerns the target T2, SGK1 (Homo sapiens, UniProt O00141).
T2 sequence (O00141 1-431): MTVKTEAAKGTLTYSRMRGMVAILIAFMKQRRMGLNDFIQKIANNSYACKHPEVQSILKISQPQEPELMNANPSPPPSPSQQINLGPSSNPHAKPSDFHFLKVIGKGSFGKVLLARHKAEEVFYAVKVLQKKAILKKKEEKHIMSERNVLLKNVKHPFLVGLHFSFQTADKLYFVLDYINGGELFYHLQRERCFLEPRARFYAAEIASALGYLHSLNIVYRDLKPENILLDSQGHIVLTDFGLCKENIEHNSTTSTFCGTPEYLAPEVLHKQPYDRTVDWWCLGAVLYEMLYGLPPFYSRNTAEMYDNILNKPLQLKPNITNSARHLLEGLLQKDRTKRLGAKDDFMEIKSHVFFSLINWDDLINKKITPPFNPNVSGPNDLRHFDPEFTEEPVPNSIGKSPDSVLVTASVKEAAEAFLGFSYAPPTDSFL
The assay is described as follows: Kinase profiling SGK1. The settings on record: 100 micromolar inhibitor concentration, 100 is no change; for remaining activity at 100 µM: read-out: residual kinase activity, SGK1.
Description: as §1

The target of another assay is T3, p38g MAPK (Homo sapiens, UniProt P53778).
T3 sequence (P53778 1-367): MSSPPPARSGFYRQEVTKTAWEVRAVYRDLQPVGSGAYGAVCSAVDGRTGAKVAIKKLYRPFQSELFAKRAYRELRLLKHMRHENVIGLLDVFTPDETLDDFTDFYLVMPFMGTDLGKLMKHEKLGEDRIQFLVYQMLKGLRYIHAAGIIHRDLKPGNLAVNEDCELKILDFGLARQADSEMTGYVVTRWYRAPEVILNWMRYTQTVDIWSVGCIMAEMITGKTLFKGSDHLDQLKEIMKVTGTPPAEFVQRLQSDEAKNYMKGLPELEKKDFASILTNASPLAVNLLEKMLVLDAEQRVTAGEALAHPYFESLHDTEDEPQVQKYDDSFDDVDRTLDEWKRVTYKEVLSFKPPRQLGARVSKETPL
As to the kind of experiment: Kinase profiling p38g MAPK. The settings on record: 100 micromolar inhibitor concentration, 100 is no change; for remaining activity at 100 µM: read-out: residual kinase activity, p38g MAPK.
Description: as §1

The next assay concerns the target TrkA (Homo sapiens, UniProt P04629). As to the kind of experiment: Kinase profiling TrkA. The settings on record: 100 micromolar inhibitor concentration, 100 is no change; for remaining activity at 100 µM: read-out: residual kinase activity, TrkA.
Description: as §1

Another assay deals with ERK2 (Homo sapiens, UniProt P28482). The assay is described as follows: Kinase profiling ERK2. The settings on record: 100 micromolar inhibitor concentration, 100 is no change; for remaining activity at 100 µM: read-out: residual kinase activity, ERK2.
Description: as §1

The next assay addresses CHK2 (Homo sapiens, UniProt O96017). As to the kind of experiment: Kinase profiling CHK2. The settings on record: 100 micromolar inhibitor concentration, 100 is no change; for remaining activity at 100 µM: read-out: residual kinase activity, CHK2.
Description: as §1

Another assay deals with VEG-FR. As to the kind of experiment: Kinase profiling VEG-FR. The settings on record: 100 micromolar inhibitor concentration; 100 is no change.
Description: as §1

A further assay has as its target DYRK1A (Homo sapiens, UniProt Q13627). As to the kind of experiment: DYRK 1A assay (kinase profiling). The settings on record: 100 micromolar inhibitor concentration, 100 is no change; for remaining activity at 100 µM: read-out: residual kinase activity, DYRK1A. The protocol: Assays are stopped by addition of 5 μl of 0.5 M (3%) orthophosphoric acid and then harvested onto P81 Unifilter plates with a wash buffer of 50 mM orthophosphoric acid.
as §1

The target in a further assay is T4, TAK1 (Homo sapiens, UniProt O43318).
T4 sequence (O43318 1-303 limits assumed): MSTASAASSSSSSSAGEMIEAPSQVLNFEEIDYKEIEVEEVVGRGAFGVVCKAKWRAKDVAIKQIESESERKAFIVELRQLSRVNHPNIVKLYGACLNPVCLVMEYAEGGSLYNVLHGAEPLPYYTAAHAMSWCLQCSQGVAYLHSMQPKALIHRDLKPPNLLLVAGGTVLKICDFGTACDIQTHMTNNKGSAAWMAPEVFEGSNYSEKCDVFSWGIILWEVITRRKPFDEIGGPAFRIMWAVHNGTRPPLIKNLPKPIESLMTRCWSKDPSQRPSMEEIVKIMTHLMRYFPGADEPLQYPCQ
T4 sequence (Q15750 437-504 partner limits assumed): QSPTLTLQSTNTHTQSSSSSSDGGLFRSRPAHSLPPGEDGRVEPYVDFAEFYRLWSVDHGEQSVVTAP
The assay is described as follows: Kinase profiling TAK1. The settings on record: 100 micromolar inhibitor concentration, 100 is no change; for remaining activity at 100 µM: read-out: residual kinase activity, TAK1.
Description: as §1

For a further assay, the target named is EF2K (Homo sapiens, UniProt O00418). The assay is described as follows: Kinase profiling EF2K. The settings on record: 100 micromolar inhibitor concentration, 100 is no change; for remaining activity at 100 µM: read-out: residual kinase activity, EF2K.
Description: as §1

In the next assay the target is MKK1 (Homo sapiens, UniProt Q02750). As to the kind of experiment: Kinase profiling MKK1. The settings on record: 100 micromolar inhibitor concentration, 100 is no change; for remaining activity at 100 µM: read-out: residual kinase activity, MKK1.
Description: as §1

JAK2, sequence (O60674 whole entry, species assumed): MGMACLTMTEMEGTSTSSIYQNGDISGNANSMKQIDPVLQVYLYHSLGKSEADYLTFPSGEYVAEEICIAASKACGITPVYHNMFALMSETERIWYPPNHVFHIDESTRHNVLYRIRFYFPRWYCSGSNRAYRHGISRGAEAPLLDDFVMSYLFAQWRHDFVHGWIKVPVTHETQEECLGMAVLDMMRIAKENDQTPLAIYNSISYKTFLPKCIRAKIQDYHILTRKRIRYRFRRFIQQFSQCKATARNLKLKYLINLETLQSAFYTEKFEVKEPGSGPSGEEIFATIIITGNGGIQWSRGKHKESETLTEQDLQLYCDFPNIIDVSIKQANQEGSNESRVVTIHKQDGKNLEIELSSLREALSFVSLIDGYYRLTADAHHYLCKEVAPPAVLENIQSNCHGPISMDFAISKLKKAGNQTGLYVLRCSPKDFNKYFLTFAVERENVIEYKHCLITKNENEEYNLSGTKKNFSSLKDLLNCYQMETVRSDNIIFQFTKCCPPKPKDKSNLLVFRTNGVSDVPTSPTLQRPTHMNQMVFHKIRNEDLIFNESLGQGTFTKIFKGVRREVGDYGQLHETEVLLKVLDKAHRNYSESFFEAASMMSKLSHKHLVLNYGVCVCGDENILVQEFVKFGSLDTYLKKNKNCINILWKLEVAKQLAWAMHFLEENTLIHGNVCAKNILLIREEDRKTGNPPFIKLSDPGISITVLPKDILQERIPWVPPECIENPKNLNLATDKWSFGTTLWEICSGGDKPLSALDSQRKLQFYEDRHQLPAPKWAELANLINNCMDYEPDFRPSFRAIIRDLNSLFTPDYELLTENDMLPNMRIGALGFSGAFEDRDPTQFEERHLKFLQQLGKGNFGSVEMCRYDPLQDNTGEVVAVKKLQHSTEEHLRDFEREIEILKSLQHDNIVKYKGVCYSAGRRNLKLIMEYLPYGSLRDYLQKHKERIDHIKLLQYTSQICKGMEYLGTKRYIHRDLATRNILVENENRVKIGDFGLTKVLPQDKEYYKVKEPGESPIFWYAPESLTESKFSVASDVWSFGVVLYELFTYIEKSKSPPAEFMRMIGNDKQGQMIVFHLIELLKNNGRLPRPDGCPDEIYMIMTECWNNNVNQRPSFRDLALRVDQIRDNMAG
STK33, sequence (Q9BYT3 whole entry, species assumed): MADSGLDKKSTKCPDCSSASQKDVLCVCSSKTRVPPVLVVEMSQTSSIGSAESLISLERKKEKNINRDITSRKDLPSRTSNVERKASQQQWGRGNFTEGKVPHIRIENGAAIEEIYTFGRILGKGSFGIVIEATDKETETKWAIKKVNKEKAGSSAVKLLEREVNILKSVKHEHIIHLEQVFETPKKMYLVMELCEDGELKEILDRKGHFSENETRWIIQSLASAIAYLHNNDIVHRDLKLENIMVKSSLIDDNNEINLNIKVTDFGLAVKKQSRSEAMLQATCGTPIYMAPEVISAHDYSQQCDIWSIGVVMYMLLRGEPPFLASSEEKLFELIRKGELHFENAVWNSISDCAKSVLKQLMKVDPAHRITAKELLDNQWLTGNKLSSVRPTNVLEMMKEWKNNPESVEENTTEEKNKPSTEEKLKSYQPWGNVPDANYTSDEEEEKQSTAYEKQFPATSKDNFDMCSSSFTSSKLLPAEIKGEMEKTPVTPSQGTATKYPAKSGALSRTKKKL
JNK3, sequence (P53779 whole entry, species assumed): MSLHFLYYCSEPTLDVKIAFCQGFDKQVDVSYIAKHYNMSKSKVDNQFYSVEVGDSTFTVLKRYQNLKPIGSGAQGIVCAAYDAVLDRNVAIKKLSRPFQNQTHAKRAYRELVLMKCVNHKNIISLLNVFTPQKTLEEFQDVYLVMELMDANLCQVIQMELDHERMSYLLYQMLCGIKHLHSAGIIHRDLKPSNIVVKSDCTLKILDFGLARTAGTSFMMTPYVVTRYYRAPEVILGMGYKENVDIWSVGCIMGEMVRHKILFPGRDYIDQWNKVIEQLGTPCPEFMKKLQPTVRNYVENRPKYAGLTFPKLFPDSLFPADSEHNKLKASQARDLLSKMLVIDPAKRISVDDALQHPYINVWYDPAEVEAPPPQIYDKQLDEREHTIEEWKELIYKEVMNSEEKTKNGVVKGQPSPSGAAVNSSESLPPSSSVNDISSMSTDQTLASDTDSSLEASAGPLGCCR
CHK2, sequence (O96017 whole entry, species assumed): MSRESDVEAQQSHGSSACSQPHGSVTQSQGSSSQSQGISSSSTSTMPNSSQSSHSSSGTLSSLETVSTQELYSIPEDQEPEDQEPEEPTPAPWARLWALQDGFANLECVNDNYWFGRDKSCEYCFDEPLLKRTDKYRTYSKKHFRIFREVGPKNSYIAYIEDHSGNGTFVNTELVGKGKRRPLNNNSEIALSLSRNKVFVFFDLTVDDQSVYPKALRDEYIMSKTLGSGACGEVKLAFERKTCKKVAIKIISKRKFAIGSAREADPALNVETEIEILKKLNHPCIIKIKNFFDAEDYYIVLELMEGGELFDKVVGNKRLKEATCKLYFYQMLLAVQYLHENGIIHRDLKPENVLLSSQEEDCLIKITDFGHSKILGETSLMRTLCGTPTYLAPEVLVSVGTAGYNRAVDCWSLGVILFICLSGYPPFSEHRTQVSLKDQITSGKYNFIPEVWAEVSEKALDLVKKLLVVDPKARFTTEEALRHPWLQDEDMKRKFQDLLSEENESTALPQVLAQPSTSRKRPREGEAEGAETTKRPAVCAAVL
TrkA, sequence (P04629 33-796, species assumed): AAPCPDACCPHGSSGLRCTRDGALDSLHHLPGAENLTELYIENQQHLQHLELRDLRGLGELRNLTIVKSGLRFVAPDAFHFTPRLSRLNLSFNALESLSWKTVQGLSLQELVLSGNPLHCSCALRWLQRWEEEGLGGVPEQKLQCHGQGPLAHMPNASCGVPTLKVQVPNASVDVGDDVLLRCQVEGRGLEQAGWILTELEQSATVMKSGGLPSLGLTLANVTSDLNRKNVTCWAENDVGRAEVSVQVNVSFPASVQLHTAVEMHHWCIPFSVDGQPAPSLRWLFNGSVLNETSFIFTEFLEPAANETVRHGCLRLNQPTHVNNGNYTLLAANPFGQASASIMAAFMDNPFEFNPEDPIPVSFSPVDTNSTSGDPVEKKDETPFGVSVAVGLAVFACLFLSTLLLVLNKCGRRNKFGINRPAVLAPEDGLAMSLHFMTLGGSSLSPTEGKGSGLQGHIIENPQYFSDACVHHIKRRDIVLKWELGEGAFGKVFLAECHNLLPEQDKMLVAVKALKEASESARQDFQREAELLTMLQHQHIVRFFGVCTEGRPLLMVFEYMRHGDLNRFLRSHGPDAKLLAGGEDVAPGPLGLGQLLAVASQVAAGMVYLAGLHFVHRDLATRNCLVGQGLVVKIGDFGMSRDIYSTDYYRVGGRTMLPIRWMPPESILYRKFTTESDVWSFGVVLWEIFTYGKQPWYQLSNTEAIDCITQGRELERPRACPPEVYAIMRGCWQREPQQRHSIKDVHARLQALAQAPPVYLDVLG
ERK2, sequence (P28482 whole entry, species assumed): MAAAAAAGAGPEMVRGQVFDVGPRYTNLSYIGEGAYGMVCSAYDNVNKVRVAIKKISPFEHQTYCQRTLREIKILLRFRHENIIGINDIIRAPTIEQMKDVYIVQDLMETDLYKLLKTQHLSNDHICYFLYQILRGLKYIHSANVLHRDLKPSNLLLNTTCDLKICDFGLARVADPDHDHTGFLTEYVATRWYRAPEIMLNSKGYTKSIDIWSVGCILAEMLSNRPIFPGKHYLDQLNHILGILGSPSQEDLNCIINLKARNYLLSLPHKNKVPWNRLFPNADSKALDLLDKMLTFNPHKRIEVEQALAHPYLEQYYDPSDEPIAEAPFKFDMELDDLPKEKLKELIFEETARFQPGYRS
HIPK2, sequence (Q9H2X6 whole entry, species assumed): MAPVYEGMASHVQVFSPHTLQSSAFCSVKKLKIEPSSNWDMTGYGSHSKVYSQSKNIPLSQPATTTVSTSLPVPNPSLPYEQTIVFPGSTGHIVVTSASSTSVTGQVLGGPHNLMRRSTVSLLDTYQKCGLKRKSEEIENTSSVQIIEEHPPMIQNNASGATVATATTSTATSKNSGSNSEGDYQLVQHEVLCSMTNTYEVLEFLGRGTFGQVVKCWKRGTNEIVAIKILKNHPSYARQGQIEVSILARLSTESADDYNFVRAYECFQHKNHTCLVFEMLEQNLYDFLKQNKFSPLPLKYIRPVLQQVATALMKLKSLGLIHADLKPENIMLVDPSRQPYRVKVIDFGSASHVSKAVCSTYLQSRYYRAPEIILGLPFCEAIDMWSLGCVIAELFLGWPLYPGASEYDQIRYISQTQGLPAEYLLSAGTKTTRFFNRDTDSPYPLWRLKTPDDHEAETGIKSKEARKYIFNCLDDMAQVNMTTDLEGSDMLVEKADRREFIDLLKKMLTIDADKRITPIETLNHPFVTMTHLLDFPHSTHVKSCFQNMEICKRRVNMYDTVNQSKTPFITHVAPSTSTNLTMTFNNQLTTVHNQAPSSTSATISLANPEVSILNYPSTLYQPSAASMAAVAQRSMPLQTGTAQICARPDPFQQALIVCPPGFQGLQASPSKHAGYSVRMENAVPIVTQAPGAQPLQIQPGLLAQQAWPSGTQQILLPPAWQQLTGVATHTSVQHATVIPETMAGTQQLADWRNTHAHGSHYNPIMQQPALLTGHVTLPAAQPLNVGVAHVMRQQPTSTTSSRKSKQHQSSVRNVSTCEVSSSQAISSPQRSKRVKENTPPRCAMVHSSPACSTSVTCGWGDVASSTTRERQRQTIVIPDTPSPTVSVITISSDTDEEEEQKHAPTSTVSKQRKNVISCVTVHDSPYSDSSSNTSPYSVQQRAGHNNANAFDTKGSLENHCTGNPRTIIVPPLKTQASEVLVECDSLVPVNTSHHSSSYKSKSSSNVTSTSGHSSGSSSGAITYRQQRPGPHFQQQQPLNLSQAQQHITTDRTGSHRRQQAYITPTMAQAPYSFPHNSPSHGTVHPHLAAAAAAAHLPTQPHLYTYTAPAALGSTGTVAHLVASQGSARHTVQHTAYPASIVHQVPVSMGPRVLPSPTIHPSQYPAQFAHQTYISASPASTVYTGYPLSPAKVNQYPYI

On to `COc1ccc2sc(NC(C)=O)nc2c1` [Compound 03-21], for which the remaining activity at 100 µM at PKD1 was 59%; on JAK2 it was 88%; on JNK3 it was 80%; at HIPK2, 25%; at STK33, 81%; on SGK1 it was 82%. The remaining activity at 100 µM came out at 56% on p38g MAPK; 78% on TrkA; 109% at ERK2; 58% at CHK2; 2% at DYRK1A; 50% on TAK1. Moreover, the remaining activity at 100 µM at EF2K is 105%; on MKK1 it was 64%. Further, the “residual kinase activity, VEG-FR” value with VEG-FR is 71.

Take `CC(=O)Nc1nc2ccccc2s1` [Compound 03-32]: the “residual kinase activity, PKD1” value on PKD1 was found to be 105. Also, at JAK2, the “residual kinase activity, JAK2” value was found to be 66. In addition, the “residual kinase activity, JNK3” value on JNK3 was found to be 66. Besides, on HIPK2, the “residual kinase activity, HIPK2” value is given as 51. Moreover, the “residual kinase activity, STK33” value on STK33 amounted to 104. Moreover, the “residual kinase activity, SGK1” value at SGK1 is 92. Besides, at p38g MAPK, the “residual kinase activity, p38g MAPK” value amounted to 109. Moreover, at TrkA, the “residual kinase activity, TrkA” value is given as 77. Also, at ERK2, the “residual kinase activity, ERK2” value is recorded as 149. Moreover, the “residual kinase activity, CHK2” value on CHK2 came out at 87. Moreover, the “residual kinase activity, VEG-FR” value in the assay on VEG-FR came out at 66. Further, at DYRK1A, the “residual kinase activity, DYRK1A” value is on record as 43. Besides, the “residual kinase activity, TAK1” value at TAK1 was determined as 76. Also, at EF2K, the “residual kinase activity, EF2K” value was 89. In addition, the “residual kinase activity, MKK1” value on MKK1 stood at 81.

Regarding `O=C(Nc1nc2cc(O)ccc2s1)c1cccnc1` [Compound 03-33], the “residual kinase activity, PKD1” value on PKD1 worked out at 71. Further, the “residual kinase activity, JAK2” value on JAK2 is reported as 70. The “residual kinase activity, JNK3” value at JNK3 is given as 76. For the same compound, the “residual kinase activity, HIPK2” value on HIPK2 is 52. Moreover, the “residual kinase activity, STK33” value at STK33 turned out to be 70. Besides, at SGK1, the “residual kinase activity, SGK1” value was 86. Also, the “residual kinase activity, p38g MAPK” value on p38g MAPK came out at 85. Moreover, the “residual kinase activity, TrkA” value at TrkA was found to be 51. Further, the “residual kinase activity, ERK2” value at ERK2 worked out at 107. Further, the “residual kinase activity, CHK2” value at CHK2 amounted to 46. Further, in the assay on VEG-FR, the “residual kinase activity, VEG-FR” value amounted to 50. Further, at DYRK1A, the “residual kinase activity, DYRK1A” value is reported as 29. Further, the “residual kinase activity, TAK1” value on TAK1 worked out at 73. The “residual kinase activity, EF2K” value at EF2K was 106. Moreover, the “residual kinase activity, MKK1” value at MKK1 amounted to 89.

Take `O=C(Nc1nc2ccc(O)cc2s1)c1ccccc1` [Compound 03-60]: the “residual kinase activity, PKD1” value on PKD1 was 47. Besides, the “residual kinase activity, JAK2” value on JAK2 is on record as 36. Further, the “residual kinase activity, JNK3” value on JNK3 stood at 48. Besides, the “residual kinase activity, HIPK2” value at HIPK2 worked out at 8. The “residual kinase activity, STK33” value on STK33 was 38. In addition, the “residual kinase activity, SGK1” value at SGK1 came out at 41. On p38g MAPK, the “residual kinase activity, p38g MAPK” value was found to be 58. For the same compound, the “residual kinase activity, TrkA” value on TrkA came out at 23. At ERK2, the “residual kinase activity, ERK2” value is 82. Also, the “residual kinase activity, CHK2” value on CHK2 stood at 5. For the same compound, in the assay with VEG-FR, the “residual kinase activity, VEG-FR” value was 5. The “residual kinase activity, DYRK1A” value on DYRK1A was 2. In addition, on TAK1, the “residual kinase activity, TAK1” value amounted to 9. Further, the “residual kinase activity, EF2K” value at EF2K worked out at 107. Further, at MKK1, the “residual kinase activity, MKK1” value was determined as 49.

Turning to `CC(=O)Nc1nc2cc(C(F)(F)F)ccc2s1` [Compound 03-73], the remaining activity at 100 µM was determined as 83% on PKD1; 96% on JAK2; 83% at JNK3; 51% on HIPK2; 86% at STK33; 77% at SGK1. The remaining activity at 100 µM at p38g MAPK is 93%; at TrkA it was 74%; at ERK2, 108%; at CHK2, 78%; at DYRK1A, 22%; on TAK1, 45%. Also, the remaining activity at 100 µM amounted to 109% on EF2K and 96% at MKK1. In addition, the “residual kinase activity, VEG-FR” value in the assay with VEG-FR is reported as 33.

The record behind these values is patent US10231954B2, “Neurodegenerative therapies” (LYTIX BIOPHARMA AS, priority 2014, dated 2019).
